Measured values published in ChEMBL document CHEMBL1136229, “Design and synthesis of fluorinated RXR modulators” (Bioorg Med Chem Lett, 2003).

Columns and labels:
[1] = biological target: RXR alpha/PPAR gamma (Homo sapiens, UniProt P19793); assay: Synergistic activation of BRL-49653 mediated PPAR gamma and retinoid X receptor alpha expressed in CV-1 cell transcriptional activation assay; assay type: functional, cell-based
[2] = biological target: T1, Retinoic acid receptor gamma (Homo sapiens, UniProt P13631); assay: Inhibition of 3[H]ATRA binding to retinoid acid receptor gamma expressed in CV-1 cells; assay type: cell-based
T1 sequence (P13631 whole entry): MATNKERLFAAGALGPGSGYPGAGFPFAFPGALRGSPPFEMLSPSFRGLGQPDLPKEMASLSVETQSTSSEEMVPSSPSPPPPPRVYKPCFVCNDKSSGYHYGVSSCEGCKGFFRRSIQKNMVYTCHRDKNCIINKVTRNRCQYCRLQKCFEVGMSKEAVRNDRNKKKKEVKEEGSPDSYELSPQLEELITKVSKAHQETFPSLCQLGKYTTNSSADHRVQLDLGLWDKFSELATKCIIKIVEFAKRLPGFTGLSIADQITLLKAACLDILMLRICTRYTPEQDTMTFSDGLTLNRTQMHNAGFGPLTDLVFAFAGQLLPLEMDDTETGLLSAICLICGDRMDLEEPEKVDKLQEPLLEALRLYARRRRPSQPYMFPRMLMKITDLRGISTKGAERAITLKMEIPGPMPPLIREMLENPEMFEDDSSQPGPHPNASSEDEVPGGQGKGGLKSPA

[3] = biological target: T2, Retinoic acid receptor RXR-alpha (Homo sapiens, UniProt P19793); assay: Inhibition of 3[H]9-cis-retinoic acid binding to Retinoic acid receptor RXR-alpha expressed in CV-1 cells; assay type: cell-based
T2 sequence (P19793 whole entry): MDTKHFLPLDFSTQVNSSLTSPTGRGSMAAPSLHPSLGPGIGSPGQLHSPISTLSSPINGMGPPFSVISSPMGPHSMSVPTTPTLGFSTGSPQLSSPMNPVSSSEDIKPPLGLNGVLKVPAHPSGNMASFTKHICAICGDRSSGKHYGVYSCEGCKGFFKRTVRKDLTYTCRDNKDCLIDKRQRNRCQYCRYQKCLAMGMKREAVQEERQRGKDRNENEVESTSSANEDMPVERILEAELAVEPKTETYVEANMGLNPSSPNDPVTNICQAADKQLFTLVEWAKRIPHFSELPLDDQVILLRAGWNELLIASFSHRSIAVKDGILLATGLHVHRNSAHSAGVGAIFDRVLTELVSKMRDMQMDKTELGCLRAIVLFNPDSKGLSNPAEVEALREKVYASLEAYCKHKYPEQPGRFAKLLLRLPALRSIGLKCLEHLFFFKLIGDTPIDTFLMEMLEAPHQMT

[4] = biological target: T2, Retinoic acid receptor RXR-alpha; assay: Antagonist activity against Retinoic acid receptor RXR-alpha expressed in CV-1 cell transcriptional activation assay; assay type: functional, cell-based
[5] = species on record: Homo sapiens; assay: Synergistic activation of retinoid acid receptor (RAR) transcriptional activation at 3 nM TTNPB; assay type: functional
[6] = Tmax after oral administration at 30 mg/kg in ICR mouse; assay type: ADME, organism-based; design: dose 30 mg/kg, route oral; settings: in vivo
[7] = AUC (0-6 hr) after oral administration at 30 mg/kg in ICR mouse; assay type: ADME, organism-based; design: time < 6 hr, route oral, dose 30 mg/kg; settings: plasma
[8] = system: Mus musculus; assay: Cmax after oral administration at 30 mg/kg in ICR mouse; assay type: ADME, organism-based; design: dose 30 mg/kg, route oral; settings: in vivo
[9] = biological target: T2, Retinoic acid receptor RXR-alpha; assay: Agonist activity against Retinoic acid receptor RXR-alpha expressed in CV-1 cell transcriptional activation assay; assay type: functional, cell-based

Sequence of RXR alpha/PPAR gamma (P37231 whole entry, one chain of several): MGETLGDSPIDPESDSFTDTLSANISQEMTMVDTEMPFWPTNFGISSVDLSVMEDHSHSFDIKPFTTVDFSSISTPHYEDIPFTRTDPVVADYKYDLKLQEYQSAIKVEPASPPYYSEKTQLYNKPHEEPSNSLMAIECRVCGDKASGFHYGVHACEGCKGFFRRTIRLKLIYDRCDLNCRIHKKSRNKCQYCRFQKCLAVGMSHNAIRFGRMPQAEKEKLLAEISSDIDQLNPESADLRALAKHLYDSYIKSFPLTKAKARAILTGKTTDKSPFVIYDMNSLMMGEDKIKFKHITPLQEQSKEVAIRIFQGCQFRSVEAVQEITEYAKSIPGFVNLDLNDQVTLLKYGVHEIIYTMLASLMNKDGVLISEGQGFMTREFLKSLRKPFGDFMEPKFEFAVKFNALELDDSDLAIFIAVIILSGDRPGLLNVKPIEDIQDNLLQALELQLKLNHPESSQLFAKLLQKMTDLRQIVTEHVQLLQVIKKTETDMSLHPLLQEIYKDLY

| EC50 [1] | Ki [2] | Ki [3] | EC50 [4] | Tmax [6] | AUC(0-t) at 6 h [7] | Cmax [8] | EC50 [9] | SMILES | Synergy [5] |
| --- | --- | --- | --- | --- | --- | --- | --- | --- | --- |
| 359 nM | > 10000 nM | 5210 nM | 806 nM | – | – | – | – | CCCCOc1c(\C(C)=C/C=C/C(=C/C(=O)O)C(F)(F)F)cc(C(C)(C)C)cc1C(C)(C)C | 1.3 |
| – | > 10000 nM | – | – | 1 h | 2090 ng·h/mL | 1200 ng/mL | – | C/C(=C/C=C/C(C)=C/C(=O)O)c1cc(C(C)(C)C)cc(C(C)(C)C)c1OCC(F)F | 1.4 |
| 167 nM | – | 50.3 nM | 38 nM | – | – | – | – | CCOc1c(\C(=C/C=C/C(C)=C/C(=O)O)C(F)(F)F)cc(C(C)(C)C)cc1C(C)(C)C | 7 |
| – | 8570 nM | – | 6.4 nM | – | – | – | – | CCOc1c(\C(C)=C/C=C/C(C)=C/C(=O)O)cc(C(C)(C)C)cc1C(C)(C)C | 2 |
| 2.7 nM | > 10000 nM | 10.6 nM | 3.4 nM | – | – | – | – | C/C(=C/C=C/C(C)=C(\F)C(=O)O)c1cc(C(C)(C)C)cc(C(C)(C)C)c1OCC(F)F | 1.5 |
| 9.2 nM | > 10000 nM | 3.8 nM | 3.3 nM | – | – | – | – | CCCCOc1c(\C(C)=C/C=C/C(C)=C/C(=O)O)cc(C(C)(C)C)cc1C(C)(C)C | 1.2 |
| 143 nM | > 10000 nM | – | 4840 nM | – | – | – | – | C/C(=C/C=C(F)/C(C)=C/C(=O)O)c1cc(C(C)(C)C)cc(C(C)(C)C)c1OCC(F)F | 2.5 |
| 6.4 nM | > 10000 nM | 7.8 nM | 6.8 nM | 3 h | 17800 ng·h/mL | 3690 ng/mL | – | CC(/C=C/C(F)=C(/C)c1cc(C(C)(C)C)cc(C(C)(C)C)c1OCC(F)F)=C\C(=O)O | 1.8 |
| 249 nM | > 10000 nM | – | 8710 nM | – | – | – | 259 nM | C/C(=C/C(F)=C/C(C)=C/C(=O)O)c1cc(C(C)(C)C)cc(C(C)(C)C)c1OCC(F)F | 8.9 |
